Test [1] has as its target Mitochondrial complex I; NADH oxidoreductase (Bos taurus, UniProt P25708+P52505). Put plainly: Inhibitory concentration needed to halve the control NADH oxidase activity in bovine heart submitochondrial particles (SMP). The class given is protein-complex assay.
The target in test [2] is Mitochondrial complex I; NADH oxidoreductase (Bos taurus) (UniProt P25708+P52505). Put plainly: Maximum inhibition (2 uM) halve the control NADH oxidase activity in bovine heart submitochondrial particles (SMP). The class given is protein-complex assay.

Chain of Mitochondrial complex I; NADH oxidoreductase (P25708 21-464 limits assumed, other chains not shown): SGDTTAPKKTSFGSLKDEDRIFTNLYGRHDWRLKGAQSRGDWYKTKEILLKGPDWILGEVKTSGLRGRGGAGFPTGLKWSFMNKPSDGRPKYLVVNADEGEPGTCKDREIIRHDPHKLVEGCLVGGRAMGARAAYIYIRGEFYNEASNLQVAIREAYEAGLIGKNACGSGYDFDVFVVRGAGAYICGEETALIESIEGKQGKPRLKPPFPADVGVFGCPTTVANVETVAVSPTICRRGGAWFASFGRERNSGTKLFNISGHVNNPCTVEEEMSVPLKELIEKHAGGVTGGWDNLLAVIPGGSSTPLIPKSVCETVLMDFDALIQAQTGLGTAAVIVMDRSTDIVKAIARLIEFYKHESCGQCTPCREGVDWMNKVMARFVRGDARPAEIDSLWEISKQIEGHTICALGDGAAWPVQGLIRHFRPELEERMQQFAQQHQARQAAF

Compound `CCCCCCCCCCC[C@H]1CC[C@H]([C@H]2CC[C@H]([C@H](O)CCCCCCCCCCCCC3=C[C@H](C)OC3=O)O2)O1` came in with an IC50 in test [1] of 3.1 nM. Same read-out and setting: with `CCCCCCCCCC[C@@H](O)[C@H]1CC[C@H]([C@H]2CC[C@H]([C@H](O)CCCCCCCCCCCCC3=C[C@H](C)OC3=O)O2)O1` [ISODESAACETYLUVARICIN] the figure was 0.75 nM.

`CCCCCCCCCCC[C@H]1CC[C@H]([C@H]2CC[C@H](CCCCCCCCCCCCCC3=C[C@H](C)OC3=O)O2)O1` yielded an inhibition in test [2] of 85%. The compound also came in with an IC50 in test [1] of 85 nM. With `CCCCCCCCCC[C@@H](O)[C@H]1CC[C@H]([C@H]2CC[C@H](CCCCCCCCCCCCCC3=C[C@H](C)OC3=O)O2)O1`, the midpoint of inhibition in test [1], the IC50, lay at 2.7 nM.

The record behind these values is ChEMBL document CHEMBL1148426, “Essential structural features of acetogenins: role of hydroxy groups adjacent to the bis-THF rings” (Bioorg Med Chem Lett, 2004).
